Earlier results in patent publication US20010036664A1, “L-leucyl-L-leucine methyl ester treatment of donor lypmhocyte infusions in bone marrow transplant patients” (priority 2000, published 2001).

Assays:
[1] = system: GVHD-inducing T cells; details: stem cell toxicity occurs at this concentration
[2] = system: GVHD; details: ex vivo treatment of bone marrow grafts; multiple murine models

Which “concentrations necessary to purge GVHD-inducing T cells” value [1] does the source give for `COC(=O)[C@H](CC(C)C)NC(=O)[C@@H](N)CC(C)C` [LLME, L-leucyl-L-leucine methyl ester] here?
Its value is 500 µM.

And the “prevention of GVHD” value [2]?
The value was “completely prevent GVHD”.
